According to patent US11273153B2, “MAPK inhibitors” (EverBrilliant Pharma Pty Ltd, priority 2014, dated 2022):
Like-named read-outs stand apart in the source and are kept apart here.

What was measured:
p38α MAPK = p38α MAPK (Homo sapiens (Human), UniProt Q16539); experiment: Radioactive (33P-labelled ATP) filter binding assay of p38α MAPK activity; assay type: biochemical
Method: (§1) A number of compounds were also assessed for the inhibition of p38α MAPK activity (www.kinase-screen.mrc.ac.uk) in which a radioactive (^33P-labelled ATP) filter binding assay was used to directly measure phosphate incorporation. Table 1 summarises the binding affinities of the synthesised compounds to both forms of the enzyme as well as the inhibitory activities against p38α MAPK. By way of enabling a comparison with a non-thiophene compound the biological testing was also carried out for known inhibitor RWJ67657, shown in table 1.

[1] = molecular target: active phosphorylated p38α MAPK (Homo sapiens (Human), UniProt Q16539); experiment: Fluorescence polarisation (FP) binding assay, active enzyme
Chain of active phosphorylated p38α MAPK (Q16539 whole entry): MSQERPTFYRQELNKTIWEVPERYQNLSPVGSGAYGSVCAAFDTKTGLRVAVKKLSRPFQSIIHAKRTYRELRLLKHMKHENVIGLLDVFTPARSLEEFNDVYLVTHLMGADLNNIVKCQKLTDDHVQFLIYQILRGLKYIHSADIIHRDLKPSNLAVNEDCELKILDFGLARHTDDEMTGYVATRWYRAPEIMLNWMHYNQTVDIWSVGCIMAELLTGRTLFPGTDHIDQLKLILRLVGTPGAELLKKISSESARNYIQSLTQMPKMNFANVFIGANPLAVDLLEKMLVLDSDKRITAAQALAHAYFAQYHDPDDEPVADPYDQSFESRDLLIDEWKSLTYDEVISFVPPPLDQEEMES
Method: as §1
(§2) FP signals were measured with a PHERAstar microplate reader (BMG Labtech) using black, low-binding half-area 96 well plates (Corning). Each binding data point was carried out in duplicate or triplicate. Data were recorded in millipolarisation (mP) units and measured at an excitation wavelength of 485 nm and an emission wavelength of 520 nm. Tris(hydroxymethyl)aminomethane (Tris) assay buffer was used in all binding experiments and consisted of 10 mM Tris, […] potassium chloride, and 3.5 mM 3-((3-cholamidopropyl)dimethylammonium)-1-propanesulfonate (Chaps) at pH 8.0.
(§3) Test compounds were prepared from dimethylsulfoxide stocks (10 mM). […] Plates were incubated at room temperature for 1 hour and FP signals were recorded. For binding experiments to active p38α MAPK, the FP signals were recorded after 2 hours incubation at room temperature. Data is represented as mean±SEM from two to three independent experiments.

[2] = molecular target: inactive non-phosphorylated p38α MAPK (Homo sapiens (Human), UniProt Q16539); experiment: Fluorescence polarisation (FP) binding assay, inactive enzyme
Chain of inactive non-phosphorylated p38α MAPK (Q16539 whole entry): as above
Method: as §1, §2, §3

[3] = molecular target: p38α MAPK activation (phosphorylation) by MKK6 (Homo sapiens (Human), UniProt Q16539); experiment: In vitro activation assay (phosphorylation of p38α MAPK by MKK6, western blot); assay type: biochemical
Chain of p38α MAPK activation (phosphorylation) by MKK6 (Q16539 whole entry): as above
Method: The assay was analysed by immunoblotting using antibodies against pan p38 MAPK and activated (phosphorylated) p38α MAPK. […] The reaction is initiated by the addition of ATP and MKK6 and proceeds for 15 minutes.
The assay was analysed by immunoblotting using antibodies against pan p38 MAPK and phosphorylated p38α MAPK.
The reaction was started by the addition of active MKK6 (5 ng) and ATP (100 μM). After 30 minutes incubation at room temperature, the reaction was stopped with ethylenediaminetetraacetic acid (EDTA) (10 mM). Phosphorylation of p38 MAPK was analysed by Western blotting.
Reaction samples were mixed 1:1 with Laemmli loading buffer, including β-mercaptoethanol (Biorad). Samples were heated at 95° C. for 5 minutes and 80 ng of protein was resolved using sodium dodecyl sulfate polyacrylamide gel electrophoresis (SDS-PAGE) gels (Biorad) at 200 V for 90 minutes. Proteins were transferred (100 V, 1 hour) to a polyvinylidene difluoride (PVDF) membrane (Merck). Membranes were incubated in blocking buffer (5% skim milk in Tris-buffered saline with Tween 20 (TBST), 1 hour, room temperature) and washed in TBST. Membranes were incubated with primary antibodies against total and phosphorylated p38 MAPK (1:1,000, Cell Signaling Technology) overnight at 4° C. Membranes were washed 4×15 minutes in TBST and probed with a secondary anti-mouse antibody at 1:2,000 dilution for 1 hour at room temperature, followed by washing in TBST (4×15 minutes). Signal detection was done with Western Lightning plus-ECL enhanced chemiluminescent substrate (Perkin Elmer) with the ChemiDoc Imaging System (BioRad).

[4] = Table 1, average of two experiments, read-out: IC50 (μM, mean)
[5] = read-out: IC50 (inhibitory activity against p38α MAPK)
[6] = Table 1, read-out: Ki (μM, mean ± SEM) active p38α
[7] = Table 6, read-out: Ki ± SEM (μM) to active p38α
[8] = Table 1, read-out: Ki (μM, mean ± SEM) inactive p38α
[9] = Table 6, read-out: Ki ± SEM (μM) to inactive p38α
[10] = Table 5, read-out: Ki ± SEM (μM) to active p38α MAPK
[11] = Table 5, read-out: Ki ± SEM (μM) to inactive p38α MAPK
[12] = read-out: Ki to active p38α MAPK

Chain of p38α MAPK (Q16539 whole entry): as above

Row | SMILES | IC50 (p38α MAPK; [4]) [µM] | IC50 (p38α MAPK; Table 6, read-out: IC50 (mean)) [µM] | IC50 (p38α MAPK; [5]) [µM] | Ki [1, 6] [µM] | Ki [1, 7] [µM] | Ki [2, 8] [µM] | Ki [2, 9] [µM] | binding to p38α MAPK, in words [2] | Ki [1, 10] [µM] | Ki [2, 11] [µM] | Ki [1, 12] [µM] | inhibition of p38α MAPK activation (phosphorylation) ([3]; 10 μM concentration) | inhibition of p38α MAPK activation (phosphorylation) ([3]; 1 μM concentration) | Ki ([2]; read-out: Ki to inactive non-phosphorylated p38α MAPK) [µM]
1 | OCCC#Cc1sc(-c2ccc(F)cc2)c(-c2ccncc2)c1C(O)CCc1ccccc1 (stereo not drawn) [Compound 4.6, 4-(5-(4-Fluorophenyl)-3-(1-hydroxy-3-phenylpropyl)-4-(pyridin-4-yl)thiophen-2-yl)but-3-yn-1-ol] | 4.72 | 4.72 | 4.72 | 3.85 | 3.9 | > 10 | > 10 |  |  |  |  |  |  | 
2 | OC(CCc1ccccc1)c1csc(-c2ccc(F)cc2)c1-c1ccncc1 (stereo not drawn) [Compound 4.17, 1-(5-(4-Fluorophenyl)-4-(pyridin-4-yl)thiophen-3-yl)-3-phenylpropan-1-ol] | 0.26 | 0.26 | 0.26 | 0.99 ± 0.09 | 0.99 ± 0.09 | 1.9 ± 0.3 | 1.9 ± 0.3 |  |  |  |  |  |  | 
3 | Fc1ccc(-c2scc(CCCc3ccccc3)c2-c2ccncc2)cc1 [Compound 4.18, 4-(2-(4-Fluorophenyl)-4-(3-phenylpropyl)thiophen-3-yl)pyridine] | 0.27 | 0.27 | 0.27 | 0.72 ± 0.03 | 0.72 ± 0.03 | 1.5 ± 0.5 | 1.5 ± 0.5 |  |  |  |  |  |  | 
4 | Fc1ccc(-c2scc(C#CCc3ccccc3)c2-c2ccncc2)cc1 [Compound 4.19, 4-(2-(4-Fluorophenyl)-4-(3-phenylprop-1-yn-1-yl)thiophen-3-yl)pyridine] |  |  |  | 9.44 | 9.4 | > 10 | > 10 | complete loss of binding |  |  |  |  |  | 
5 | Fc1ccc(-c2sc(I)cc2-c2ccncc2)cc1 [Compound 5.1, 4-(2-(4-Fluorophenyl)-5-iodothiophen-3-yl)pyridine] |  |  |  |  | 2.3 |  | 1.9 ± 0.4 |  | 2.3 | 1.9 ± 0.4 |  |  |  | 
6 | OCCCC#Cc1cc(-c2ccncc2)c(-c2ccc(F)cc2)s1 [Compound 5.3, 5-(5-(4-Fluorophenyl)-4-(pyridin-4-yl)thiophen-2-yl)pent-4-yn-1-ol] |  |  |  |  | 0.8 ± 0.04 |  | 1.7 ± 0.2 |  | 0.8 ± 0.04 | 1.7 ± 0.2 |  |  |  | 
7 | NCCC#Cc1cc(-c2ccncc2)c(-c2ccc(F)cc2)s1 [Compound 5.7, 4-(5-(4-Fluorophenyl)-4-(pyridin-4-yl)thiophen-2-yl)but-3-yn-1-amine] |  |  |  |  | 0.19 ± 0.04 |  | 1.1 ± 0.2 |  | 0.19 ± 0.04 | 1.1 ± 0.2 | 0.19 |  |  | 
8 | Fc1ccc(-c2sc(C#CCCN3CCOCC3)cc2-c2ccncc2)cc1 [Compound 5.8, 4-(4-(5-(4-Fluorophenyl)-4-(pyridin-4-yl)thiophen-2-yl)but-3-yn-1-yl)morpholine] |  |  |  |  | 2.5 |  | 2.2 ± 0.2 |  | 2.5 | 2.2 ± 0.2 | 2.5 |  |  | 
9 | OCCCCc1cc(-c2ccncc2)c(-c2ccc(F)cc2)s1 [Compound 5.9, 4-(5-(4-Fluorophenyl)-4-(pyridin-4-yl)thiophen-2-yl)butan-1-ol] |  |  |  |  | 0.25 ± 0.04 |  | 0.98 ± 0.02 |  | 0.25 ± 0.04 | 0.98 ± 0.02 | 0.25 | inhibition of p38α MAPK activation |  | 
10 | O=C(CCCO)c1cc(-c2ccncc2)c(-c2ccc(F)cc2)s1 [Compound 5.10, 1-(5-(4-Fluorophenyl)-4-(pyridin-4-yl)thiophen-2-yl)-4-hydroxybutan-1-one] |  |  |  |  | 0.67 ± 0.03 |  | 2.7 ± 0.3 |  | 0.67 ± 0.03 | 2.7 ± 0.3 | 0.67 | inhibition of p38α MAPK activation |  | 
11 | CCOC(=O)c1cc(-c2ccncc2)c(-c2ccc(F)cc2)s1 [Compound 5.11, Ethyl 5-(4-fluorophenyl)-4-(pyridin-4-yl)thiophene-2-carboxylate] |  |  |  |  | 2.2 |  | 6 ± 1 |  | 2.2 | 6 ± 1 |  |  |  | 
12 | O=C(O)c1cc(-c2ccncc2)c(-c2ccc(F)cc2)s1 [Compound 5.12, 5-(4-Fluorophenyl)-4-(pyridin-4-yl)thiophene-2-carboxylic acid] |  |  |  |  | 1.4 |  | 17 ± 2 |  | 1.4 | 17 ± 2 |  |  |  | 
13 | O=C(c1cc(-c2ccncc2)c(-c2ccc(F)cc2)s1)N1CCNCC1 [Compound 5.14, (5-(4-Fluorophenyl)-4-(pyridin-4-yl)thiophen-2-yl) (piperazin-1-yl)methanone] |  |  |  |  | 0.9 ± 0.1 |  | 6.3 ± 0.4 |  | 0.9 ± 0.1 | 6.3 ± 0.4 |  |  |  | 
14 | CC(=O)c1cc(-c2ccncc2)c(-c2ccc(F)cc2)s1 [Compound 5.15, 1-(5-(4-Fluorophenyl)-4-(pyridin-4-yl)thiophen-2-yl)ethanone] |  |  |  |  | 1.4 |  | 6.4 ± 0.6 |  | 1.4 | 6.4 ± 0.6 |  |  |  | 
15 | O=C(c1ccccc1)c1cc(-c2ccncc2)c(-c2ccc(F)cc2)s1 [Compound 5.16, (5-(4-Fluorophenyl)-4-(pyridin-4-yl)thiophen-2-yl) (phenyl)methanone] |  |  |  |  | 2.8 ± 0.1 |  | 5 ± 2 |  | 2.8 ± 0.1 | 5 ± 2 |  | inhibition of p38α MAPK activation |  | 
16 | O=C(c1ccco1)c1cc(-c2ccncc2)c(-c2ccc(F)cc2)s1 [Compound 5.17, (5-(4-Fluorophenyl)-4-(pyridin-4-yl)thiophen-2-yl) (furan-2-yl)methanone] |  |  |  |  | 2.5 |  | 5.9 ± 0.7 |  | 2.5 | 5.9 ± 0.7 |  |  |  | 
17 | Fc1ccc(-c2sc(-c3ccco3)cc2-c2ccncc2)cc1 [Compound 5.18, 4-(2-(4-Fluorophenyl)-5-(furan-2-yl)thiophen-3-yl)pyridine] |  |  |  |  | 1.7 |  | > 10 |  | 1.7 | > 10 |  |  |  | 
18 | Fc1ccc(-c2sc(-c3c(F)c(F)nc(F)c3F)cc2-c2ccncc2)cc1 [Compound 5.19, 2,3,5,6-Tetrafluoro-4-(5-(4-fluorophenyl)-4-(pyridin-4-yl)thiophen-2-yl)pyridine] |  |  |  |  | 0.8 ± 0.1 |  | 3.01 ± 0.03 |  | 0.8 ± 0.1 | 3.01 ± 0.03 | 0.8 |  |  | 
19 | Nc1nc(F)c(F)c(-c2cc(-c3ccncc3)c(-c3ccc(F)cc3)s2)c1F [Compound 5.20, 3,5,6-Trifluoro-4-(5-(4-fluorophenyl)-4-(pyridin-4-yl)thiophen-2-yl)pyridin-2-amine] |  |  |  |  | 0.21 ± 0.01 |  | 0.66 ± 0.06 |  | 0.21 ± 0.01 | 0.66 ± 0.06 | 0.2 | inhibition of p38α MAPK activation |  | 
20 | Nc1nc(N)c(F)c(-c2cc(-c3ccncc3)c(-c3ccc(F)cc3)s2)c1F [Compound 5.21, 3,5-Difluoro-4-(5-(4-fluorophenyl)-4-(pyridin-4-yl)thiophen-2-yl)pyridine-2,6-diamine] |  |  |  |  | 0.16 ± 0.02 |  | 0.47 ± 0.01 |  | 0.16 ± 0.02 | 0.47 ± 0.01 | 0.16 | inhibition of p38α MAPK activation | significant inhibition | 0.47
21 | OCCC#Cc1nc(-c2ccc(F)cc2)c(-c2ccncc2)n1CCCc1ccccc1 [RWJ67657, reference compound] |  |  |  | 0.013 ± 0.006 | 0.013 ± 0.006 | 0.21 ± 0.04 | 0.21 ± 0.04 |  | 0.013 ± 0.006 | 0.21 ± 0.04 |  | inhibition of p38α MAPK activation |  | 
